# Results taken from US9133183B2, “Imidazolidinones and analogs exhibiting anti-cancer and anti-proliferative activities” (Deciphera Pharmaceuticals, LLC, priority 2013, dated 2015).
# Molecular target: unphosphorylated PDGFRβ kinase (uPDGFRβ, Seq. ID No. 3) (Homo sapiens (Human), UniProt P09619)
# Experiment: Unphosphorylated PDGFRβ kinase assay (coupled pyruvate kinase/lactate dehydrogenase)
# Assay type: biochemical
# Conditions: enzymatic assay, ATP 500 μM
# Summary of the method: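 Construct residues 557-1106, unphosphorylated, 15.7 nM, with poly E4Y 2.5 mg/mL and 500 μM ATP, Tris pH 7.5, 1% DMSO, 30 °C. ADP coupled to NADH oxidation via PK/LDH, A340 followed 4 h; rate from 1.5-2.5 h versus no-compound control, IC50 from percent-inhibition series.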
# Chain of unphosphorylated PDGFRβ kinase (uPDGFRβ, Seq. ID No. 3) (P09619 557-1106): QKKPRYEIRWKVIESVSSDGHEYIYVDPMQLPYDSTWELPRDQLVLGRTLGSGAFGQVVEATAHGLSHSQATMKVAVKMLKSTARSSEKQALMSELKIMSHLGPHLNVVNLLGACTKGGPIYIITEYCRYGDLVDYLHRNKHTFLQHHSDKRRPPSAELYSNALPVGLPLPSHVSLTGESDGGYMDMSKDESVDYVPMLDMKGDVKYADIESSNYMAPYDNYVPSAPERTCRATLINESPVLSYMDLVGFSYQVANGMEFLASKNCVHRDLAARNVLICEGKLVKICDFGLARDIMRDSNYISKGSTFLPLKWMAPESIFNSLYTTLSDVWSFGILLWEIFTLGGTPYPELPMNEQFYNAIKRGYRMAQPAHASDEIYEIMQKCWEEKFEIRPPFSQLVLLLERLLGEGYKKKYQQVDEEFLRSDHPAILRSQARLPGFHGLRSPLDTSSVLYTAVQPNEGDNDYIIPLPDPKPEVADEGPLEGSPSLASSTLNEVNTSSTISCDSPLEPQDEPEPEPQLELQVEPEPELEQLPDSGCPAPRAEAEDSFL
row,SMILES,IC50
1,"Cn1cc(-c2cc(Oc3ccc(NC(=O)N4CCN(C5CCOC5)C4=O)nc3)ccn2)cn1 (stereo in doubt) [Example 12, (S)—N-(5-((2-(1-methyl-1H-pyrazol-4-yl)pyridin-4-yl)oxy)pyridin-2-yl)-2-oxo-3-(tetrahydrofuran-3-yl)imidazolidine-1-carboxamide]",> 1 µM
2,"Cc1nc(NC(=O)N2CCN(C3CCOCC3)C2=O)ccc1Oc1ccnc(-c2cnn(C)c2)c1 [Example 3, N-(6-methyl-5-((2-(1-methyl-1H-pyrazol-4-yl)pyridin-4-yl)oxy)pyridin-2-yl)-2-oxo-3-(tetrahydro-2H-pyran-4-yl)imidazolidine-1-carboxamide]",> 1 µM
3,"CCn1cc(-c2cc(Oc3ccc(NC(=O)N4CCN(C5CCOCC5)C4=O)nc3)ccn2)cn1 [Example 4, N-(5-((2-(1-ethyl-1H-pyrazol-4-yl)pyridin-4-yl)oxy)pyridin-2-yl)-2-oxo-3-(tetrahydro-2H-pyran-4-yl)imidazolidine-1-carboxamide]",0.1 to 1 µM
4,"Cc1cc(-c2cc(Oc3ccc(NC(=O)N4CCN(C5CCOCC5)C4=O)nc3)ccn2)on1 [Example 7, N-(5-((2-(3-methylisoxazol-5-yl)pyridin-4-yl)oxy)pyridin-2-yl)-2-oxo-3-(tetrahydro-2H-pyran-4-yl)imidazolidine-1-carboxamide]",> 1 µM
5,"COCCN1CCN(C(=O)Nc2ccc(Oc3ccnc(-c4cnn(C)c4)c3)cn2)C1=O [Example 10, 3-(2-methoxyethyl)-N-(5-((2-(1-methyl-11H-pyrazol-4-yl)pyridin-4-yl)oxy)pyridin-2-yl)-2-oxoimidazolidine-1-carboxamide]",> 1 µM
6,"COCCCN1CCN(C(=O)Nc2ccc(Oc3ccnc(-c4cnn(C)c4)c3)cn2)C1=O [Example 11, 3-(3-methoxypropyl)-N-(5-((2-(1-methyl-1H-pyrazol-4-yl)pyridin-4-yl)oxy)pyridin-2-yl)-2-oxoimidazolidine-1-carboxamide]",> 1 µM
7,"COC[C@H](C)N1CCN(C(=O)Nc2ccc(Oc3ccnc(-c4cnn(C)c4)c3)cn2)C1=O [Example 16, (S)-3-(1-methoxypropan-2-yl)-N-(5-((2-(1-methyl-11H-pyrazol-4-yl)pyridin-4-yl)oxy)pyridin-2-yl)-2-oxoimidazolidine-1-carboxamide]",0.1 to 1 µM
8,"COCCCN1CCN(C(=O)Nc2ccc(Oc3ccnc(-c4cnn(C)c4)c3)c(C)n2)C1=O [Example 19, 3-(3-methoxypropyl)-N-(6-methyl-5-((2-(1-methyl-1H-pyrazol-4-yl)pyridin-4-yl)oxy)pyridin-2-yl)-2-oxoimidazolidine-1-carboxamide]",> 1 µM
9,"Cc1nc(NC(=O)N2CCN(C3COC3)C2=O)ccc1Oc1ccnc(-c2cnn(C)c2)c1 [Example 20, N-(6-methyl-5-((2-(1-methyl-1H-pyrazol-4-yl)pyridin-4-yl)oxy)pyridin-2-yl)-3-(oxetan-3-yl)-2-oxoimidazolidine-1-carboxamide]",> 1 µM
10,"Cn1cc(-c2cc(Oc3ccc(NC(=O)N4CCN(CCOC(F)(F)F)C4=O)nc3)ccn2)cn1 [Example 21, N-(5-((2-(1-methyl-1H-pyrazol-4-yl)pyridin-4-yl)oxy)pyridin-2-yl)-2-oxo-3-(2-(trifluoromethoxy)ethyl)imidazolidine-1-carboxamide]",> 1 µM
11,"Cc1nc(NC(=O)N2CCN(C3CCCCC3)C2=O)ccc1Oc1ccnc(-c2cnn(C)c2)c1 [Example 22, 3-cyclohexyl-N-(6-methyl-5-((2-(1-methyl-1H-pyrazol-4-yl)pyridin-4-yl)oxy)pyridin-2-yl)-2-oxoimidazolidine-1-carboxamide]",> 1 µM
12,"Cn1cc(-c2cc(Oc3ccc(NC(=O)N4CCN(C5CCC(F)(F)CC5)C4=O)nc3)ccn2)cn1 [Example 25, 3-(4,4-difluorocyclohexyl)-N-(5-((2-(1-methyl-1H-pyrazol-4-yl)pyridin-4-yl)oxy)pyridin-2-yl)-2-oxoimidazolidine-1-carboxamide]",0.01 to 0.1 µM
13,"Cc1nc(NC(=O)N2CCN(C3CCC(F)(F)CC3)C2=O)ccc1Oc1ccnc(-c2cnn(C)c2)c1 [Example 26, 3-(4,4-difluorocyclohexyl)-N-(6-methyl-5-((2-(1-methyl-1H-pyrazol-4-yl)pyridin-4-yl)oxy)pyridin-2-yl)-2-oxoimidazolidine-1-carboxamide]",> 1 µM
14,"Cc1nc(NC(=O)N2CCN(C(C)(C)C)C2=O)ccc1Oc1ccnc(-c2cnn(C)c2)c1 [Example 33, 3-(tert-butyl)-N-(6-methyl-5-((2-(1-methyl-1H-pyrazol-4-yl)pyridin-4-yl)oxy)pyridin-2-yl)-2-oxoimidazolidine-1-carboxamide]",0.1 to 1 µM
15,"Cn1cc(-c2cc(Oc3ccc(NC(=O)N4CCN(C(C)(C)C)C4=O)nc3)ccn2)cn1 [Example 34, 3-(tert-butyl)-N-(5-((2-(1-methyl-1H-pyrazol-4-yl)pyridin-4-yl)oxy)pyridin-2-yl)-2-oxoimidazolidine-1-carboxamide]",0.01 to 0.1 µM
16,"Cc1nc(NC(=O)N2CCN(C(C)C)C2=O)ccc1Oc1ccnc(-c2cnn(C)c2)c1 [Example 35, 3-isopropyl-N-(6-methyl-5-((2-(1-methyl-1H-pyrazol-4-yl)pyridin-4-yl)oxy)pyridin-2-yl)-2-oxoimidazolidine-1-carboxamide]",0.1 to 1 µM
17,"CC(C)N1CCN(C(=O)Nc2ccc(Oc3ccnc(-c4cnn(C)c4)c3)cn2)C1=O [Example 36, 3-isopropyl-N-(5-((2-(1-methyl-1H-pyrazol-4-yl)pyridin-4-yl)oxy)pyridin-2-yl)-2-oxoimidazolidine-1-carboxamide]",0.1 to 1 µM

# More lines, now with the values ahead:
row,IC50,SMILES
1,> 1 µM,"[2H]C([2H])([2H])n1cc(-c2cc(Oc3ccc(NC(=O)N4CCN(CCOC)C4=O)nc3C)ccn2)cn1 [Example 39, 3-(2-methoxyethyl)-N-(6-methyl-5-((2-(1-(trideuteromethyl)-1H-pyrazol-4-yl)pyridin-4-yl)oxy)pyridin-2-yl)-2-oxoimidazolidine-1-carboxamide]"
2,> 1 µM,"Cc1nc(NC(=O)N2CCN(CC(F)(F)F)C2=O)ccc1Oc1ccnc(-c2cnn(C)c2)c1 [Example 43, N-(6-methyl-5-((2-(1-methyl-1H-pyrazol-4-yl)pyridin-4-yl)oxy)pyridin-2-yl)-2-oxo-3-(2,2,2-trifluoroethyl)imidazolidine-1-carboxamide]"
3,> 1 µM,"CCc1nc(NC(=O)N2CCN(C3CCOCC3)C2=O)ccc1Oc1ccnc(-c2cnn(C)c2)c1 [Example 49, N-(6-ethyl-5-((2-(1-methyl-1H-pyrazol-4-yl)pyridin-4-yl)oxy)pyridin-2-yl)-2-oxo-3-(tetrahydro-2H-pyran-4-yl)imidazolidine-1-carboxamide]"
4,0.1 to 1 µM,"Cc1ccc(-c2cc(Oc3ccc(NC(=O)N4CCN(C5CCOCC5)C4=O)nc3)ccn2)cn1 [Example 52, N-(5-((6′-methyl-[2,3′-bipyridin]-4-yl)oxy)pyridin-2-yl)-2-oxo-3-(tetrahydro-2H-pyran-4-yl)imidazolidine-1-carboxamide]"
5,0.1 to 1 µM,"Cc1ccc(-c2cc(Oc3ccc(NC(=O)N4CCN(C5CCOCC5)C4=O)nc3C)ccn2)cn1 [Example 54, N-(6-methyl-5-((6′-methyl-[2,3′-bipyridin]-4-yl)oxy)pyridin-2-yl)-2-oxo-3-(tetrahydro-2H-pyran-4-yl)imidazolidine-1-carboxamide]"
6,> 1 µM,"CCc1nc(NC(=O)N2CCN(CC(F)(F)F)C2=O)ccc1Oc1ccnc(-c2cnn(C)c2)c1 [Example 56, N-(6-ethyl-5-((2-(1-methyl-1H-pyrazol-4-yl)pyridin-4-yl)oxy)pyridin-2-yl)-2-oxo-3-(2,2,2-trifluoroethyl)imidazolidine-1-carboxamide]"
7,> 1 µM,"CCc1nc(NC(=O)N2CCN(C3CCCC3)C2=O)ccc1Oc1ccnc(-c2cnn(C)c2)c1 [Example 57, 3-cyclopentyl-N-(6-ethyl-5-((2-(1-methyl-1H-pyrazol-4-yl)pyridin-4-yl)oxy)pyridin-2-yl)-2-oxoimidazolidine-1-carboxamide]"
8,> 1 µM,"CCc1nc(NC(=O)N2CCN(C3CC3)C2=O)ccc1Oc1ccnc(-c2cnn(C)c2)c1 [Example 58, 3-cyclopropyl-N-(6-ethyl-5-((2-(1-methyl-1H-pyrazol-4-yl)pyridin-4-yl)oxy)pyridin-2-yl)-2-oxoimidazolidine-1-carboxamide]"
9,> 1 µM,"CCN1CCN(C(=O)Nc2ccc(Oc3ccnc(-c4ccc(C5CCN(C)CC5)cc4)c3)c(C)n2)C1=O [Example 61, 3-ethyl-N-(6-methyl-5-((2-(4-(1-methylpiperidin-4-yl)phenyl)pyridin-4-yl)oxy)pyridin-2-yl)-2-oxoimidazolidine-1-carboxamide]"
10,> 1 µM,"Cc1cc(NC(=O)N2CCN(C)C2=O)ncc1Oc1ccnc(-c2cnn(C)c2)c1 [Example 85, 3-methyl-N-(4-methyl-5-((2-(1-methyl-1H-pyrazol-4-yl)pyridin-4-yl)oxy)pyridin-2-yl)-2-oxoimidazolidine-1-carboxamide]"
11,> 1 µM,"CCN1CCN(C(=O)Nc2cc(C)c(Oc3ccnc(-n4cnc(C)c4)c3)cn2)C1=O [Example 88, 3-ethyl-N-(4-methyl-5-((2-(4-methyl-1H-imidazol-1-yl)pyridin-4-yl)oxy)pyridin-2-yl)-2-oxoimidazolidine-1-carboxamide]"
12,> 1 µM,"CCN1CCN(C(=O)Nc2ccc(Oc3ccnc(-c4cnc(C)o4)c3)cn2)C1=O [Example 117, 3-ethyl-N-(5-((2-(2-methyloxazol-5-yl)pyridin-4-yl)oxy)pyridin-2-yl)-2-oxoimidazolidine-1-carboxamide]"
13,0.1 to 1 µM,"CC(=O)Nc1cc(Oc2ccc(NC(=O)N3CCN(C4CCOCC4)C3=O)nc2)ccn1 [Example 119, N-(5-((2-acetamidopyridin-4-yl)oxy)pyridin-2-yl)-2-oxo-3-(tetrahydro-2H-pyran-4-yl)imidazolidine-1-carboxamide]"
14,0.01 to 0.1 µM,"CN(C)C(=O)Nc1cc(Oc2ccc(NC(=O)N3CCN(C4CCOCC4)C3=O)nc2)ccn1 [Example 120, N-(5-((2-(3,3-dimethylureido)pyridin-4-yl)oxy)pyridin-2-yl)-2-oxo-3-(tetrahydro-2H-pyran-4-yl)imidazolidine-1-carboxamide]"
